The record followed here is ChEMBL document CHEMBL1130976, “5-Aminomethylquinoxaline-2,3-diones. Part I: A novel class of AMPA receptor antagonists” (Bioorg Med Chem Lett, 1998).

The target in series [1] is Glutamate receptors; NMDA/AMPA. Put plainly: In vitro binding affinity to the AMPA receptor using [3H]AMPA binding assay. The format is protein-complex assay.
The subject of series [2] is Mus musculus. Put plainly: Tested for anticonvulsion activity in the electroshock-inducedconvulsion assays in mice at 50 mg/kg after 30 min (i.p. administration ). Type of series: functional. The note with it: route intraperitoneal.
The subject of series [3] is Mus musculus. In words: Tested for anticonvulsion activity in the metrazole-induced convulsion assays in mice after 30 min of ip administration. The format is functional. The note with it: 0.5 h.
For series [4], the target named is Glutamate receptor ionotropic, NMDA 1 (Rattus norvegicus, UniProt P35439). In words: Tested for in vitro binding affinity against glycine-bining site of NMDA receptor using [3H]MDL-105519 binding assay.
Series [5] addresses Glutamate receptor ionotropic, AMPA (Rattus norvegicus) (UniProt P19491+P19492+P19493+P19490). In words: Tested for in vitro binding affinity against AMPA receptor using [3H]AMPA binding assay at a concentration of 1 uM. Type of series: protein-complex assay.
In series [6] the test system is Mus musculus. In words: Tested for anticonvulsion activity in the mice after 1 hr pretreatment of oral administration. Type of series: functional.
For series [7], the system named is Mus musculus. In words: Tested for anticonvulsion activity in the electroshock-induced convulsion assays in mice after 30 min of ip administration. The format is functional. The note with it: 0.5 h.
Series [8] in a line: Tested for solubility in water at pH 7.4. Type of series: ADME.
The subject of series [9] is Mus musculus. In words: Tested for anticonvulsion activity in the electroshock-induced convulsion assays in mice at 50 mg/kg after 30 min (i.p. administration ). Type of series: functional. The note with it: route intraperitoneal.

Consider `O=[N+]([O-])c1cc2nc(O)c(O)nc2cc1CN1CCNCC1`, for which, in series [1], the IC50 is 11000 nM.
On the same count and under the same terms, under `O=[N+]([O-])c1cc2nc(O)c(O)nc2cc1CN1CCCC1CO` (stereo not given) stands 700 nM.
In the series on Mus musculus [2], `Br.O=[N+]([O-])c1cc2nc(O)c(O)nc2cc1CN1CC=CC1` gave a Protection of 60%. This molecule also yielded an IC50 in [1] of 490 nM. For the same molecule, the ED50 in the series with Mus musculus [3] was 35 mg/kg.
`O=C(O)C1CCN(Cc2cc3nc(O)c(O)nc3cc2Br)CC1` displayed an IC50 in series [1] of 890 nM.
As for `O=C(O)C1CCCCN1Cc1cc2[nH]c(=O)c(=O)[nH]c2cc1Br` (stereo not given), in series [4], the IC50 is 840 nM.
In series [5], `O=C(O)C1CCCCN1Cc1cc2nc(O)c(O)nc2cc1Br` (stereo not given) yielded an inhibition of 18%.
For `CN1CCN(Cc2cc3nc(O)c(O)nc3cc2[N+](=O)[O-])CC1`, the IC50 in series [1] was determined as 3400 nM. That is a single-digit micromolar value.
The molecule `O=C(O)C1CCN(Cc2cc3nc(O)c(O)nc3c([N+](=O)[O-])c2Br)CC1` showed an inhibition in series [5] of 15%.
`NC(=O)C1CCN(Cc2cc3nc(O)c(O)nc3cc2[N+](=O)[O-])CC1`: the IC50 in series [1] is 760 nM.
`CC1CCCN(Cc2cc3nc(O)c(O)nc3cc2[N+](=O)[O-])C1` (stereo not given) gave an IC50 in series [1] of 600 nM.
Still for that read-out and setting: the figure for `O=[N+]([O-])c1cc2nc(O)c(O)nc2cc1CN1CCCCC1` is 290 nM.
For the molecule `Br.CC1CCN(Cc2cc3nc(O)c(O)nc3cc2[N+](=O)[O-])CC1`, the IC50 in series [1] was 370 nM. Further, the ED50 was determined as 54 mg/kg with Mus musculus [6], 16 mg/kg in the series on Mus musculus [3] and 33 mg/kg in the series on Mus musculus [7].
In [1], `COC1CCN(Cc2cc3nc(O)c(O)nc3cc2[N+](=O)[O-])CC1` yielded an IC50 of 430 nM.
As for `O=C(O)C1CCCN(Cc2cc3nc(O)c(O)nc3cc2Br)C1` (stereo not given), in series [1], the IC50 was determined as 2500 nM. Compared with the last molecule, the IC50 is about 5.8-fold higher.
The molecule `O=C(O)[C@H]1[C@H](O)CCN1Cc1cc2nc(O)c(O)nc2cc1[N+](=O)[O-]` gave an IC50 in series [1] of 2100 nM.
Same read-out and setting: the figure for `CC1CN1Cc1cc2nc(O)c(O)nc2cc1[N+](=O)[O-]` (stereo not given) is 2200 nM.
Regarding `O=[N+]([O-])c1cc2nc(O)c(O)nc2cc1CN1CCC1`, the IC50 in [1] turned out to be 1500 nM; in series [4], 3800 nM.
As for `O=[N+]([O-])c1cc2nc(O)c(O)nc2cc1CN1CCOCC1`, in [1], the IC50 was found to be 660 nM. In other words, the sub-micromolar range.
`O=[N+]([O-])c1cc2nc(O)c(O)nc2cc1CN1CCCC(O)C1` (stereo not given) yielded an IC50 in series [1] of 430 nM.
As to `O=[N+]([O-])c1cc2nc(O)c(O)nc2cc1CN1CCC(c2ccccc2)CC1`, the values for the IC50 in [1] and in series [4] were 430 nM and 330 nM, respectively.
Molecule `CCN(CC)Cc1cc2nc(O)c(O)nc2cc1[N+](=O)[O-]` displayed an IC50 in series [1] of 840 nM.
Consider `CCOC(=O)C1CCN(Cc2cc3nc(O)c(O)nc3cc2[N+](=O)[O-])CC1`, for which the IC50 in [1] amounted to 350 nM; in series [4] it was 590 nM.
For the molecule `Br.O=C(O)C1CCN(Cc2cc3nc(O)c(O)nc3cc2[N+](=O)[O-])CC1`, the IC50 in series [1] worked out at 70 nM; in series [4], 3900 nM. The molecule also displayed a solubility in series [8] of 1680 µg/mL. This molecule also returned an ED50 with Mus musculus [7] of 44 mg/kg.
In series [1], `O=C(O)C1(c2ccccc2)CCN(Cc2cc3nc(O)c(O)nc3cc2[N+](=O)[O-])CC1` came in with a half-maximal inhibitory concentration (IC50) of 2000 nM.
Same read-out and setting: the figure for `O=[N+]([O-])c1cc2nc(O)c(O)nc2cc1CN1CC=CCC1` is 360 nM.
For the molecule `Br.O=[N+]([O-])c1cc2nc(O)c(O)nc2cc1CN1CCC(O)C1` (stereo not given), in [1], the IC50 came out at 330 nM. Besides, in the series with Mus musculus [7], the ED50 was 34 mg/kg.
In the case of `Br.O=[N+]([O-])c1cc2nc(O)c(O)nc2cc1CN1CCCC1`, in the series with Mus musculus [9], the Protection stood at 40%. The molecule further had an IC50 in [1] of 280 nM. In the series on Mus musculus [3], the ED50 turned out to be 26 mg/kg.
`O=[N+]([O-])c1cc2nc(O)c(O)nc2cc1CN1CCC(O)CC1` yielded an IC50 in series [1] of 310 nM.
For `O=[N+]([O-])c1cc2nc(O)c(O)nc2cc1CN1CCCCCC1`, in series [1], the IC50 was found to be 580 nM.
Regarding `O=[N+]([O-])c1cc2nc(O)c(O)nc2cc1CN1CCCC(CO)C1` (stereo not given), in series [1], the IC50 worked out at 520 nM. This IC50 and that of the molecule before are within 1.5-fold of each other.
Molecule `O=C(O)[C@H]1CCCN1Cc1cc2nc(O)c(O)nc2cc1[N+](=O)[O-]` registered an IC50 in [1] of 460 nM.

By IC50 is commonly meant the concentration that inhibits the measured activity by half. Read a high IC50 as a need for much substance. What is called ED50 is the midpoint of the dose-response relation. The inhibition is the drop in the measured response relative to a control, in per cent. Low values mean little suppression, high ones strong suppression. In general, solubility refers to the dissolved amount per volume that the medium holds. Lower therefore signals little dissolved substance.
